Data published in paper PMC8901748, “A novel prostaglandin E receptor 4 (EP4) small molecule antagonist induces articular cartilage regeneration” (Cell Discovery, 2022).

Legend:
[1] = Preliminary pharmacokinetic studies in CD1 mice; format: in vivo
Experimental: To evaluate the preclinical pharmacokinetic (PK) profiles of compound HL-43 and HL-66, 36 male CD1 mice were randomly divided into four groups for PK studies. […] Blood samples were collected at 0.083, 0.25, 0.5, 1, 2, 4, 8, 12, and 24 h after administration (n = 3). Then the whole blood was centrifuged at 5500 × g for 15 min at 4 °C. After suitable sample preparation, the concentration of HL-43 and HL-66 in plasma sample was determined by Agilent HPLC-MS/MS system (Agilent Technologies, USA). Pharmacokinetic parameters were calculated by WinNonlin software version 7.0 based on non-compartmental analysis (Pharsight Corporation, Mountain View, USA). Mean plasma concentration-time curves were plotted by GraphPad Prism 7.0 (GraphPad Software Inc., CA, USA).

[2] = system: Sox9 target genes in ATDC5 cells; experiment: qRT-PCR of Sox9 target genes in ATDC5 cells; format: cell-based, mouse; conditions: 30 μM HL-43, 24 hr
Experimental: (§1) Quantitative RT-PCR was performed to measure the relative mRNA levels. RNA samples were prepared from the chondrocytes using Trizol (Takara). cDNA was generated using the Prime Script RT reverse transcriptase kit (Yeasen, Drr036a). Primers used for amplification were shown in Supplementary Table S1, GAPDH was used as the house keeping gene.

[3] = system: Nf-κb-Luc in ATDC5 cells; experiment: NF-κB-Luc luciferase reporter assay; format: cell-based, mouse; conditions: 2 ng/ml IL-1β, 30 μM HL-43, 6 h
Experimental: Six firefly luciferase reporters were used in the Luciferase assay, including CRE-Luc (PathDetect CRE cis-Reporting System; Stratagene, La Jolla CA) driven by a basic promoter (TATA box) plus four repeats of CRE; Sox9 promoter-Luc contains human SOX9 proximal promoter region (−1034 bp to +67 bp)[45]; 4 × 48-p89-Luc, mouse Col2a1 minimal promoter. AP-1-Luc, Nf-κb-Luc, STAT-Luc were obtained from Stratagene. Chondrocytes were cultured in 24-well plates and 300 ng firefly luciferase reporter constructs were transiently transfected using transfection reagent TransExellent-DNA (Cenji Biotech Inc, China) following manufacturer’s instruction, and 15 ng of the Copia-Renilla luciferase reporter was co-transfected as a normalization control. Cells were treated with the indicated reagents for 48 h after transfection. The Dual-Luciferase measurements were performed in triplicate using the Luciferase assay kit (Promega) and a LUMIstar Omega luminometer (BMG Labtech, Mornington, Australia).

[4] = system: mouse femoral head cartilage explants; experiment: Mouse femoral head cartilage explant culture; format: cell-based; conditions: 1 ng/ml IL-1β, 48 h
[5] = system: Col2a1, Acan, Mmp3, Mmp9, Mmp13 expression in primary mouse chondrocytes; experiment: qRT-PCR of anabolic and catabolic factors in primary chondrocytes; format: cell-based
Experimental: ATDC5 cell line was purchased from Riken BioResource Center (Tsukuba, Japan) and grown in a 1:1 mixture of DMEM/F12 medium (Corning, 10-092-CVR) supplemented with 5% fetal bovine serum (Gibco, 10099, USA) and 1% penicillin-streptomycin solution (Life Technologies). Cells were maintained at 37 °C under 5% CO2. Primary chondrocytes were obtained from knee joint cartilage of newborn mice. Knee joints were dissected from the tibia plateau and femoral condyle articular cartilage of mouse pups and digested in 0.1% collagenase type II (Sigma) overnight at 37 °C and chondrocytes were harvested by centrifugation. Primary chondrocytes were cultured at a density of 5 × 10^3 cells per ml at 37 °C with 5% CO2. DMEM/F12 medium with 10% fetal bovine serum (FBS) and 1% penicillin–streptomycin was used to culture the primary chondrocytes. Chondrogenic differentiation were induced with chondrogenic medium, which contains insulin-transferrin-selenium (ITS) (Sigma, I3146), 10 ng/ml TGF-β3 (PEPROTECH, 100-36E, USA), 100 nM Dexamethasone (Sigma, D4902), 50 μg/ml VC (Sigma), 1 mM sodium pyruvate (Sigma) and 40 μg/ml proline (Sigma), and/or treatment with rmIL-1β (R&D, 401-ML/CF), TNFα (PEPROTECH, 300-01A-50) in DMEM/F12 for indicated days. Western blotting was performed according to standard protocols. Antibodies used were: rabbit anti-Mmp3 (1:1000, HuaBio), rabbit anti-Mmp13 (1:500, abcam, ab39012), rabbit anti-p-CREB (1:2000, Cell Signaling Technology, 87G3), rabbit anti-CREB (1:2000, Cell Signaling Technology, 48H2), mouse anti-GAPDH (1:5000; Sigma-Aldrich, G8795), rabbit anti-Col2 (Abcam, Ab34712), rabbit anti-STAT3 (1:2000; Abcam, ab68153), rabbit anti-p-STAT3 (Y705) (1:2000; Abcam, ab76315), rabbit anti -p65 (1:1000; CST, 3034), rabbit anti-p-p65 (1:1000; CST, 3033), and rabbit anti-IκBα (1:1000; Abways, CY5026).
as §1

C[C@H](NC(=O)c1c(-c2ccccc2)nnn1CCOc1ccc(F)cc1)c1ccc(C(=O)O)cc1 [HL-43]
AUC0-∞ ([1]; I.V. (5 mg/kg)): 917.2 ng·h/mL | C0 ([1]; I.V. (5 mg/kg)): 1613.6 ng/mL | CL ([1]; I.V. (5 mg/kg)): 18.3 mL/min/kg | Vd ([1]; I.V. (5 mg/kg)): 6.3 L/kg | t1/2 ([1]; I.V. (5 mg/kg)): 4.0 h | AUC0-∞ ([1]; P.O. (1 mg/kg)): 1076.1 ng·h/mL | CL ([1]; P.O. (1 mg/kg)): 76.7 mL/min/kg | Cmax ([1]; P.O. (1 mg/kg)): 270.2 ng/mL | Vd ([1]; P.O. (1 mg/kg)): 21.8 L/kg | t1/2 ([1]; P.O. (1 mg/kg)): 3.3 h | Bioavailability ([1]; oral): 23.7% | Sox9 target genes (Col2a1, Acan, Sox5, Col9a1, Col11a1, Col27a1, Dcn, Prg4), qRT-PCR [2]: upregulated | NF-κB luciferase reporter activity [3]: not AP-1 or NF-κB | Mmp13 immunohistochemistry staining [4]: reduced immunohistochemistry staining for the catabolic marker Mmp13 | Proteoglycan content by S.O. staining [4]: favorable effect on the proteoglycan content | EP4 and STAT3 dependent increase in MMP3/13 expression ([5]; 2 ng/ml IL-1β, 24 h): dose-dependently inhibited | Expression of catabolic factors (Mmp3, Mmp9, and Mmp13) ([5]; primary mouse chondrocytes, 1 ng/ml IL-1β, 24 h): attenuated the expression of catabolic factors (Mmp3, Mmp9, and Mmp13) in a dose-dependent manner | Expression of anabolic factors (Col2a1 and Acan) ([5]; primary mouse chondrocytes, 24 h): promoted the expression of anabolic factors | Col2a1 expression (screen of EP4 antagonists) ([5]; primary murine chondrocytes, 1 ng/ml IL-1β, 24 hr, EP4 antagonists (2 nM)): highest potency in inducing Col2a1 expression | Mmp3 expression (screen of EP4 antagonists) ([5]; primary murine chondrocytes, 1 ng/ml IL-1β, 24 hr, EP4 antagonists (30 μM)): reducing Mmp3 expression
